These results are taken from PubChem BioAssay (NCI).

“And” between values parts separate entries of the source, which are not always exact repeats. Identical values can stand only once.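 Interpolation was linear, between the two tested concentrations surrounding the appropriate level; five concentrations were tested over 48 hours in 96-well plates. Here, GI50 denotes the concentration required for 50% inhibition of growth. TGI marks complete inhibition of growth.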 Bounds are passed on as bounds.

Common to all, as to test: growth of human tumour cells (NCI), 48 h
Test [1] relates to UACC-62 melanoma.
In test [2] the test system is RPMI-8226 leukemia.
In test [3] the test system is CCRF-CEM leukemia.
The test system of test [4] is BT-549 breast.
Test [5] has as its system CAKI-1 renal.
Test [6] concerns NCI-H23 lung.
Test [7] relates to SNB-19 CNS.
For test [8], the system named is HCT-116 colon.
In test [9] the test system is HCC-2998 colon.
Test [10] has as its system UO-31 renal.

Regarding `CC1CCc2c(C(=O)Nc3ncc(Cc4cccc([N+](=O)[O-])c4)s3)csc2C1` (stereo unspecified), the GI50 in test [1] is 0.373 µM; in [2], 1.14 µM; in test [3], 0.612 µM; in test [4] it was 1.25 µM; in test [5] it was 0.431 µM; in test [6], 1.83 µM. For the same compound, the GI50 was 0.678 µM in [7], 0.468 µM in [8], 1.51 µM in test [9] and 0.815 µM in [10]. Also, the TGI in [1], in test [2], in [3], in test [4], in test [5] and in test [6] was above 100 µM each time. Besides, the TGI in test [7], in [8], in test [9] and in test [10] was above 100 µM each time.

`CN1CCN(Cc2ccc(NC(=O)c3cncc(C#Cc4c(N)ncc5ccccc45)c3)cc2C(F)(F)F)CC1`: the GI50 was 0.791 µM in test [1]; 0.835 µM in test [2]; 0.14 µM in test [3]; 1.62 µM in test [4]; 0.765 µM in [5]; 0.656 µM in test [6]. Besides, the GI50 in [7] is 0.924 µM; in test [8], 0.257 µM; in [9], 0.619 µM; in test [10] it was 0.541 µM. Further, the TGI was 1.55 µM in [1]; 2.36 µM in test [2]; 1.47 µM in [3]; 4.7 µM in test [4]; 1.44 µM in test [5]; 1.46 µM in test [6]. In addition, the TGI in [7] is 1.76 µM; in test [8], 0.892 µM; in test [9], 1.26 µM; in test [10] it was 1.16 µM.

As for `Nc1nc(N)c(CCCCc2ccc([N+](=O)[O-])cc2)c(N)n1`, the TGI in [1], in [2], in test [3], in test [4], in [5] and in test [6] was above 100 µM in each case. The TGI in test [7], in [8], in [9] and in [10] was above 100 µM in each case.

As to `CNC(=O)c1sc(-n2cnc3cc(OC)c(OC)cc32)cc1OCc1ccccc1C(F)(F)F`, the GI50 in [1] was above 22.6 µM; in test [2] it was above 25 µM; in test [3] it was above 25 µM; in test [4], above 25 µM; in test [5] it was above 25 µM; in test [6] it was above 25 µM. The GI50 was above 23.6 µM in test [7], above 25 µM in [8], above 25 µM in test [9] and 12 µM in test [10]. The TGI in test [1], in test [2], in test [3], in [4], in test [5] and in test [6] was above 25 µM throughout. Further, the TGI in test [7], in [8], in test [9] and in test [10] was above 25 µM throughout.

With `COc1cc([C@H]2OC[C@@H]3C(c4cc(OC)c5c(c4)OCO5)OC[C@H]23)cc(OC)c1OC` (stereo partly specified), the TGI in test [1], in test [2], in [3], in [4], in test [5] and in test [6] was above 100 µM each time. Moreover, the TGI in [7], in test [8], in test [9] and in [10] was above 100 µM in each case.

As for `N#Cc1ccc2c(-c3ccnc(NC4CC4)n3)c(-c3ccc(F)cc3)nn2c1`, the GI50 in test [1] is above 25 µM; in test [2], above 25 µM; in test [3] it was above 25 µM; in [4] it was above 25 µM; in [5], 14.6 µM; in test [6] it was above 25 µM. The GI50 in test [7] was above 25 µM; in test [8] it was above 25 µM; in test [9], above 25 µM; in test [10], 6.78 µM. In addition, the TGI in test [1], in test [2], in test [3], in test [4], in test [5] and in test [6] was above 25 µM each time. For the same compound, the TGI in [7], in test [8], in test [9] and in test [10] was above 25 µM in each case.

Regarding `Cc1cnc(C(=O)Nc2nc3ccc(S(=O)(=O)Nc4ccc(C(C)(C)C)cc4)cc3[nH]2)cn1`, the GI50 is 0.537 µM in test [1]; 0.47 µM in test [2]; 0.415 µM in test [3]; 1.12 µM in test [4]; 0.544 µM in test [5]; 0.606 µM in test [6]. Also, the GI50 in test [7] was 0.591 µM; in [8], 0.498 µM; in test [9] it was 1.46 µM; in test [10], 0.583 µM. The TGI in [1] is 13 µM; in [2] it was 12.4 µM; in test [3], 14.5 µM; in test [4], 13.6 µM; in test [5], 16.4 µM; in test [6], 12.7 µM. Moreover, the TGI in test [7] stood at 13.7 µM; in test [8], 6.22 µM; in [9], 10.7 µM; in [10], 19.4 µM.

Turning to `O=C1OC(c2ccccc2)=N/C1=C\c1ccccc1`, the TGI in [1] is above 100 µM; in [2] it was > 100 µM and 56.8 µM; in [3], 74.4 µM and 87.5 µM; in test [4], above 100 µM; in test [5], above 100 µM; in test [6], above 100 µM. The TGI in [7], in test [8], in test [9] and in test [10] was above 100 µM throughout. The GI50 in test [4] was 68.9 µM and 26.8 µM.
